Results published in patent USRE39072E1, “2-aminopropane-1,3-diol compounds, medicinal use thereof, and intermediates in synthesizing the same” (Mitsubishi Pharma Corporation, priority 1997, dated 2006).

Tests used:
[1] = system: allogenic skin graft (LEW rat to F344 rat); test: Allogenic skin graft in rats, LEW rat skin to F344 rat; format: in vivo
Description: EXPERIMENTAL EXAMPLE 12 (Prolonging effect of skin graft on allogenic skin graft in rats)
(§1) A full-thickness skin graft (1.5×1.5 cm) of a 4-week-old male WKAH rat or LEW rat is grafted to a graft to a graft bed on the back of a 4-week-old male F344 rat by suture. The graft is covered with a sterile gauze and bound. The bandage is removed 5 days after the grafting and the skin graft is observed daily until it is rejected. […] The number of days from the grafting to rejection is taken as a graft survival days. Test compounds are intraperitoneally, intravenously or orally administered repeatedly once a day for 14 days.

[2] = Body weight change on allogenic skin graft in rats; format: in vivo, rat; details: 13 days of consecutive repeat oral administration of 10 mg/kg, rats of allogenic skin graft test (FIG. 2)
Method: (Body weight change on allogenic skin graft in rats)
The changes in body weight in rats of Experimental Example 12 on testing of allogenic skin graft in rats, after 13 days of consecutive repeat oral administration of 10 mg/kg of test compounds are shown in FIG. 2.

[3] = system: allogenic skin graft (WKAH rat to F344 rat); test: Allogenic skin graft in rats, WKAH rat skin to F344 rat; format: in vivo; details: oral; for mean survival time of skin graft: once a day for 14 days, dose 1 mg/kg or 10 mg/kg (FIG. 1), not stated which
Description: as §1
The comparative compound 1 was 2-amino-2-(2-(4-(4-phenylbutyloxy)phenyl)ethyl)propane-1,3-diol disclosed in WO94/08943, comparative compound 2 was 2-amino-2-methyl-2-(2-(4-(4-phenylbutyloxy)phenyl)butanol disclosed in WO96/06068.

| Compound | prolonging effect on graft survival compared to control group administered with vehicle alone [1] | mean survival time of skin graft ([1]; dose not stated) [days] | change in body weight [2] | prolonging effect on graft survival compared with comparative compound 2 [3] | prolonging effect on graft survival days compared to control group and comparative compound 1 group [3] | mean survival time of skin graft [3] [days] |
| --- | --- | --- | --- | --- | --- | --- |
| NC(CO)(CO)CCc1ccc(C(=O)CCCCc2ccccc2)cc1 [Compound (I-a), 2-amino-2-(2-(4-(1-oxo-5-phenylpentyl)phenyl)ethyl)propane-1,3-diol] | statistically significant prolonging effect | ≥ 20 | natural gain of body weight as in the control group | equivalent prolonging effect | prolonged graft survival days statistically significantly | 16.6 ± 1.2 |
| NC(CO)(CO)CCc1ccc(OCCCCc2ccccc2)cc1 [comparative compound 1, 2-amino-2-(2-(4-(4-phenylbutyloxy)phenyl)ethyl)propane-1,3-diol, reference compound] |  |  | a suppressive effect on the gain of the body weight |  |  | 11.9 ± 0.7 |
| CC(N)(CO)CCc1ccc(OCCCCc2ccccc2)cc1 (stereo not shown) [comparative compound 2, reference compound] |  |  | a suppressive effect on the gain of the body weight |  |  | 15.6 ± 1.4 |
